According to ChEMBL document CHEMBL1201862, “PubChem BioAssay data set” (2004):
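1) Cells in 96-well plates. 2) Compound, 48 h, 5 concentrations. 3) Linear interpolation between surrounding doses. 4) Unreached endpoint = highest concentration. The concentration for 50% growth inhibition is given as GI50.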 Activity calls are given as the source filed them. No stated cut-off is given here; in the data, active = GI50 up to about 1.1 µM and inactive = higher.

How the values were obtained:
Test in all cases: growth of human tumour cells (NCI), 48 h
[1] = tested on: NCI/ADR-RES
[2] = tested on: UO-31
[3] = tested on: SW-620
[4] = tested on: UACC-62
[5] = tested on: SK-OV-3
[6] = tested on: LOX IMVI
[7] = tested on: TK-10
[8] = tested on: MCF7
[9] = tested on: T47D
[10] = tested on: NCI-H23
[11] = tested on: CAKI-1
[12] = tested on: OVCAR-4
[13] = tested on: COLO 205
[14] = tested on: SF-539
[15] = tested on: HOP-92
[16] = tested on: U-251
[17] = tested on: EKVX
[18] = tested on: SF-295
[19] = tested on: MOLT-4
[20] = tested on: Malme-3M

SMILES: CCCCNC(=O)C1=C(C)NC(C)=C(C(=O)NCCCC)C1
- GI50 [1]: > 100 µM (inactive)
- GI50 [2]: > 100 µM (inactive)
- GI50 [3]: > 100 µM (inactive)
- GI50 [4]: > 100 µM (inactive)
- GI50 [5]: > 100 µM (inactive)
- GI50 [6]: > 100 µM (inactive)
- GI50 [7]: > 100 µM (inactive)
- GI50 [8]: > 100 µM (inactive)
- GI50 [9]: > 100 µM (inactive)
- GI50 [10]: > 100 µM (inactive)
- GI50 [11]: > 100 µM (inactive)
- GI50 [12]: > 100 µM (inactive)
- GI50 [13]: > 100 µM (inactive)
- GI50 [14]: > 100 µM (inactive)
- GI50 [15]: > 100 µM (inactive)
- GI50 [16]: > 100 µM (inactive)
- GI50 [17]: 58.7 µM (inactive)
- GI50 [18]: > 100 µM (inactive)
- GI50 [19]: > 100 µM (inactive)

SMILES: COc1cc(C2C(Cl)C(=O)N2NC(=O)c2ccc(NC(C)=O)cc2OC)ccc1O (stereo not given)
- GI50 [1]: 37.5 µM (inactive)
- GI50 [2]: 25.1 µM (inactive)
- GI50 [3]: 24.7 µM (inactive)
- GI50 [4]: 18.1 µM (inactive)
- GI50 [5]: 63.1 µM (inactive)
- GI50 [6]: 7.28 µM (inactive)
- GI50 [8]: 19.3 µM (inactive)
- GI50 [9]: 20.9 µM (inactive)
- GI50 [10]: 17.7 µM (inactive)
- GI50 [11]: 31.1 µM (inactive)
- GI50 [12]: 39.1 µM (inactive)
- GI50 [13]: 14.9 µM (inactive)
- GI50 [14]: 19.1 µM (inactive)
- GI50 [15]: 16 µM (inactive)
- GI50 [17]: 13.6 µM (inactive)
- GI50 [20]: 24.4 µM (inactive)
- GI50 [18]: < 0.01 µM (active)
- GI50 [19]: 3.96 µM (inactive)

SMILES: COc1ccc2c(c1)[C@@H]1c3cc(OC)c(OC)cc3CCN1CCC2
- GI50 [1]: > 100 µM (inactive)
- GI50 [2]: 72.9 µM (inactive)
- GI50 [3]: > 100 µM (inactive)
- GI50 [4]: > 100 µM (inactive)
- GI50 [6]: 98.4 µM (inactive)
- GI50 [7]: > 100 µM (inactive)
- GI50 [8]: 83.4 µM (inactive)
- GI50 [9]: 31.6 µM (inactive)
- GI50 [10]: > 100 µM (inactive)
- GI50 [11]: > 100 µM (inactive)
- GI50 [12]: 35.3 µM (inactive)
- GI50 [13]: > 100 µM (inactive)
- GI50 [14]: > 100 µM (inactive)
- GI50 [15]: 9.18 µM (inactive)
- GI50 [16]: > 100 µM (inactive)
- GI50 [17]: > 100 µM (inactive)
- GI50 [20]: > 100 µM (inactive)
- GI50 [18]: > 100 µM (inactive)
- GI50 [19]: 33.3 µM (inactive)

SMILES: COc1cc(O)c2c(c1)OCC1(Cc3cc(OC)c(OC)cc31)C2=O (stereo not given)
- GI50 [1]: 88.9 µM (inactive)
- GI50 [2]: > 100 µM (inactive)
- GI50 [3]: > 100 µM (inactive)
- GI50 [4]: 63.2 µM (inactive)
- GI50 [5]: > 100 µM (inactive)
- GI50 [6]: 89.3 µM (inactive)
- GI50 [7]: > 100 µM (inactive)
- GI50 [8]: 31.8 µM (inactive)
- GI50 [9]: 11.9 µM (inactive)
- GI50 [10]: 72.9 µM (inactive)
- GI50 [11]: 52 µM (inactive)
- GI50 [12]: 40 µM (inactive)
- GI50 [13]: 90.2 µM (inactive)
- GI50 [14]: > 100 µM (inactive)
- GI50 [15]: 23.3 µM (inactive)
- GI50 [16]: > 100 µM (inactive)
- GI50 [20]: 87.7 µM (inactive)
- GI50 [18]: 30.5 µM (inactive)
- GI50 [19]: 47.3 µM (inactive)

SMILES: Fc1cccc(Cl)c1C1SCc2nc3cc4ccccc4cc3n21 (stereo not given)
- GI50 [1]: 64.6 µM (inactive)
- GI50 [3]: > 100 µM (inactive)
- GI50 [4]: 43.6 µM (inactive)
- GI50 [5]: 37 µM (inactive)
- GI50 [6]: > 100 µM (inactive)
- GI50 [7]: 62.7 µM (inactive)
- GI50 [8]: > 100 µM (inactive)
- GI50 [9]: > 100 µM (inactive)
- GI50 [10]: > 100 µM (inactive)
- GI50 [11]: 99.1 µM (inactive)
- GI50 [12]: 28.9 µM (inactive)
- GI50 [13]: > 100 µM (inactive)
- GI50 [14]: 82.8 µM (inactive)
- GI50 [15]: 19.6 µM (inactive)
- GI50 [16]: > 100 µM (inactive)
- GI50 [17]: > 100 µM (inactive)
- GI50 [20]: 43.4 µM (inactive)
- GI50 [18]: 62.7 µM (inactive)
- GI50 [19]: > 100 µM (inactive)

SMILES: COC(=O)C1=COC(C)C2C[n+]3ccc4c([nH]c5ccccc54)c3CC12 (stereo not given)
- GI50 [1]: > 100 µM (inactive)
- GI50 [2]: > 100 µM (inactive)
- GI50 [3]: > 100 µM (inactive)
- GI50 [4]: > 100 µM (inactive)
- GI50 [5]: > 100 µM (inactive)
- GI50 [6]: > 100 µM (inactive)
- GI50 [7]: > 100 µM (inactive)
- GI50 [8]: 42.7 µM (inactive)
- GI50 [9]: 36.6 µM (inactive)
- GI50 [10]: > 100 µM (inactive)
- GI50 [11]: > 100 µM (inactive)
- GI50 [12]: 81.7 µM (inactive)
- GI50 [13]: > 100 µM (inactive)
- GI50 [14]: > 100 µM (inactive)
- GI50 [15]: > 100 µM (inactive)
- GI50 [16]: > 100 µM (inactive)
- GI50 [17]: > 100 µM (inactive)
- GI50 [18]: > 100 µM (inactive)
- GI50 [19]: 38.9 µM (inactive)

SMILES: NC(=O)CC(N)C(N)=O (stereo not given)
- GI50 [1]: > 100 µM (inactive)
- GI50 [3]: > 100 µM (inactive)
- GI50 [4]: > 100 µM (inactive)
- GI50 [5]: > 100 µM (inactive)
- GI50 [6]: > 100 µM (inactive)
- GI50 [7]: > 100 µM (inactive)
- GI50 [8]: > 100 µM (inactive)
- GI50 [9]: > 100 µM (inactive)
- GI50 [10]: > 100 µM (inactive)
- GI50 [11]: > 100 µM (inactive)
- GI50 [12]: > 100 µM (inactive)
- GI50 [13]: > 100 µM (inactive)
- GI50 [14]: > 100 µM (inactive)
- GI50 [15]: > 100 µM (inactive)
- GI50 [16]: > 100 µM (inactive)
- GI50 [20]: > 100 µM (inactive)
- GI50 [18]: > 100 µM (inactive)
- GI50 [19]: > 100 µM (inactive)

SMILES: OCCN1CN(c2nc(N3CN(CCO)C3)nc(N3CN(CCO)C3)n2)C1
- GI50 [1]: 31.1 µM (inactive)
- GI50 [2]: 20 µM (inactive)
- GI50 [3]: 30 µM (inactive)
- GI50 [4]: 14.5 µM (inactive)
- GI50 [6]: 14.8 µM (inactive)
- GI50 [7]: 30.6 µM (inactive)
- GI50 [8]: 21.3 µM (inactive)
- GI50 [9]: 25.8 µM (inactive)
- GI50 [10]: 22.2 µM (inactive)
- GI50 [11]: 22.5 µM (inactive)
- GI50 [12]: 30.6 µM (inactive)
- GI50 [13]: 28 µM (inactive)
- GI50 [14]: 18.2 µM (inactive)
- GI50 [15]: 19.9 µM (inactive)
- GI50 [16]: 22.6 µM (inactive)
- GI50 [17]: 26.8 µM (inactive)
- GI50 [20]: 21.5 µM (inactive)
- GI50 [19]: 33.7 µM (inactive)

SMILES: COc1cc(/C=C/C(=O)N[C@@H]2C(=O)N3[C@@H]2SC(C)(C)[C@@H]3C(=O)O)ccc1O
- GI50 [1]: > 100 µM (inactive)
- GI50 [2]: > 100 µM (inactive)
- GI50 [3]: > 100 µM (inactive)
- GI50 [4]: > 100 µM (inactive)
- GI50 [5]: > 100 µM (inactive)
- GI50 [6]: 75 µM (inactive)
- GI50 [7]: > 100 µM (inactive)
- GI50 [8]: > 100 µM (inactive)
- GI50 [9]: > 100 µM (inactive)
- GI50 [10]: > 100 µM (inactive)
- GI50 [11]: > 100 µM (inactive)
- GI50 [12]: > 100 µM (inactive)
- GI50 [13]: > 100 µM (inactive)
- GI50 [14]: > 100 µM (inactive)
- GI50 [15]: > 100 µM (inactive)
- GI50 [16]: > 100 µM (inactive)
- GI50 [17]: > 100 µM (inactive)
- GI50 [18]: > 100 µM (inactive)
- GI50 [19]: > 100 µM (inactive)

SMILES: N#C[BH2-][n+]1ccc(C(=O)NNCc2ccc(F)cc2)cc1
- GI50 [1]: > 100 µM (inactive)
- GI50 [2]: 59.7 µM (inactive)
- GI50 [3]: > 100 µM (inactive)
- GI50 [4]: > 100 µM (inactive)
- GI50 [6]: > 100 µM (inactive)
- GI50 [7]: > 100 µM (inactive)
- GI50 [8]: > 100 µM (inactive)
- GI50 [9]: > 100 µM (inactive)
- GI50 [11]: > 100 µM (inactive)
- GI50 [12]: 64.1 µM (inactive)
- GI50 [13]: > 100 µM (inactive)
- GI50 [14]: > 100 µM (inactive)
- GI50 [15]: > 100 µM (inactive)
- GI50 [16]: > 100 µM (inactive)
- GI50 [17]: > 100 µM (inactive)
- GI50 [20]: > 100 µM (inactive)
- GI50 [18]: > 100 µM (inactive)
- GI50 [19]: > 100 µM (inactive)

SMILES: COc1cccc2cc(C(=O)O)c(=O)oc12
- GI50 [1]: > 100 µM (inactive)
- GI50 [2]: > 100 µM (inactive)
- GI50 [3]: > 100 µM (inactive)
- GI50 [4]: 63.7 µM (inactive)
- GI50 [6]: > 100 µM (inactive)
- GI50 [7]: > 100 µM (inactive)
- GI50 [8]: > 100 µM (inactive)
- GI50 [9]: > 100 µM (inactive)
- GI50 [10]: > 100 µM (inactive)
- GI50 [11]: > 100 µM (inactive)
- GI50 [12]: > 100 µM (inactive)
- GI50 [13]: > 100 µM (inactive)
- GI50 [14]: > 100 µM (inactive)
- GI50 [15]: > 100 µM (inactive)
- GI50 [16]: > 100 µM (inactive)
- GI50 [17]: > 100 µM (inactive)
- GI50 [20]: > 100 µM (inactive)
- GI50 [18]: > 100 µM (inactive)
- GI50 [19]: > 100 µM (inactive)
